Experimental findings from ChEMBL document CHEMBL5335843, “Application of tobramycin benzyl ether as an antibiotic adjuvant capable of sensitizing multidrug-resistant Gram-negative bacteria to rifampicin” (2024) are described below.

What all share (assay type): functional
In test [1] the test system is Pseudomonas aeruginosa. The experiment in a line: Antibacterial activity against multi-drug resistant Pseudomonas aeruginosa clinical isolate 101243 assessed as inhibition of bacterial growth incubated for 18 hrs by two fold broth microdilution assay.
Test [2] has as its system Acinetobacter baumannii. As to the kind of experiment: Antibacterial activity against multi-drug resistant Acinetobacter baumannii clinical isolate AB027 assessed as inhibition of bacterial growth incubated for 18 hrs by two fold broth microdilution assay. A general note: Broth dilution looks for growth in wells or tubes with falling amounts of substance.
Test [3] relates to Pseudomonas aeruginosa. As to the kind of experiment: Antibacterial activity against multi-drug resistant Pseudomonas aeruginosa clinical isolate 114228 assessed as inhibition of bacterial growth incubated for 18 hrs by two fold broth microdilution assay.
In test [4] the test system is Pseudomonas aeruginosa. The experiment in a line: Antibacterial activity against multi-drug resistant Pseudomonas aeruginosa clinical isolate PA259 assessed as inhibition of bacterial growth incubated for 18 hrs by two fold broth microdilution assay.
Test [5] concerns Pseudomonas aeruginosa. The experiment in a line: Antibacterial activity against multi-drug resistant Pseudomonas aeruginosa clinical isolate PA262 assessed as inhibition of bacterial growth incubated for 18 hrs by two fold broth microdilution assay.
Test [6] deals with Pseudomonas aeruginosa. The experiment in a line: Antibacterial activity against multi-drug resistant Pseudomonas aeruginosa clinical isolate PA264 assessed as inhibition of bacterial growth incubated for 18 hrs by two fold broth microdilution assay.
The test system of test [7] is Escherichia coli. As to the kind of experiment: Antibacterial activity against multi-drug resistant Escherichia coli clinical isolate 107115 assessed as inhibition of bacterial growth incubated for 18 hrs by two fold broth microdilution assay.
The subject of test [8] is Escherichia coli. The experiment in a line: Antibacterial activity against multi-drug resistant Escherichia coli clinical isolate 94393 assessed as inhibition of bacterial growth incubated for 18 hrs by two fold broth microdilution assay.
For test [9], the system named is Escherichia coli. As to the kind of experiment: Antibacterial activity against multi-drug resistant Escherichia coli clinical isolate 94474 assessed as inhibition of bacterial growth incubated for 18 hrs by two fold broth microdilution assay.
In test [10] the test system is Acinetobacter baumannii. The experiment in a line: Antibacterial activity against multi-drug resistant Acinetobacter baumannii clinical isolate AB031 assessed as inhibition of bacterial growth incubated for 18 hrs by two fold broth microdilution assay.
Test [11] has as its system Acinetobacter baumannii. As to the kind of experiment: Antibacterial activity against multi-drug resistant Acinetobacter baumannii clinical isolate 110193 assessed as inhibition of bacterial growth incubated for 18 hrs by two fold broth microdilution assay.
Test [12] relates to Acinetobacter baumannii. As to the kind of experiment: Antibacterial activity against multi-drug resistant Acinetobacter baumannii clinical isolate 92247 assessed as inhibition of bacterial growth incubated for 18 hrs by two fold broth microdilution assay.
The subject of test [13] is Acinetobacter baumannii. The experiment in a line: Antibacterial activity against multi-drug resistant Acinetobacter baumannii clinical isolate LAC-4 assessed as inhibition of bacterial growth incubated for 18 hrs by two fold broth microdilution assay.
In test [14] the test system is Enterococcus faecium. The experiment in a line: Antibacterial activity against Enterococcus faecium 114278 assessed as inhibition of bacterial growth incubated for 18 hrs by two fold broth microdilution assay.
Test [15] relates to Enterococcus faecium. The experiment in a line: Antibacterial activity against Enterococcus faecium 128149 assessed as inhibition of bacterial growth incubated for 18 hrs by two fold broth microdilution assay.
The next test has as its system Staphylococcus aureus. As to the kind of experiment: Antibacterial activity against methicilin-resistant Staphylococcus aureus assessed as inhibition of bacterial growth incubated for 18 hrs by two fold broth microdilution assay.

Each structure is given as a SMILES string. Values after ≈ are worked out from the molar mass of the structure shown.

By MIC is commonly meant the lowest concentration that inhibits growth of the organism. In the case of `CO[C@H]1/C=C/O[C@@]2(C)Oc3c(C)c(O)c4c(O)c(c(/C=N/N5CCN(C)CC5)c(O)c4c3C2=O)NC(=O)/C(C)=C\C=C\[C@H](C)[C@H](O)[C@@H](C)[C@@H](O)[C@@H](C)[C@H](OC(C)=O)[C@@H]1C` [RIFAMPIN], the MIC came to 4 µg/mL (≈ 4.86 µM) with Pseudomonas aeruginosa [1]; 8 µg/mL (≈ 9.72 µM) with Acinetobacter baumannii [2]; 16 µg/mL (≈ 19.4 µM) in the test on Pseudomonas aeruginosa [3]; 16 µg/mL (≈ 19.4 µM) in the test on Pseudomonas aeruginosa [4]; 512 µg/mL (≈ 622 µM) in the test on Pseudomonas aeruginosa [5]; 16 µg/mL (≈ 19.4 µM) with Pseudomonas aeruginosa [6]. For the same molecule, the minimal inhibitory concentration (MIC) in the test on Escherichia coli [7] was 128 µg/mL (≈ 156 µM); in the test on Escherichia coli [8], 32 µg/mL (≈ 38.9 µM); in the test with Escherichia coli [9] it was 8 µg/mL (≈ 9.72 µM); with Acinetobacter baumannii [10], 2 µg/mL (≈ 2.43 µM); in the test with Acinetobacter baumannii [11] it was 4 µg/mL (≈ 4.86 µM); in the test on Acinetobacter baumannii [12], 4 µg/mL (≈ 4.86 µM). Moreover, the MIC was 2 µg/mL (≈ 2.43 µM) in the test on Acinetobacter baumannii [13], 4 µg/mL (≈ 4.86 µM) in the test on Enterococcus faecium [14], 8 µg/mL (≈ 9.72 µM) with Enterococcus faecium [15] and 256 µg/mL (≈ 311 µM) in the test with Staphylococcus aureus.
